Measurements from paper PMC4376699, “Characterization of Binding and Inhibitory Properties of TAK-063, a Novel Phosphodiesterase 10A Inhibitor” (PLoS ONE, 2015).

Key:
[1] = target: T1, Phosphodiesterase 10A (PDE10A) (Rattus norvegicus, UniProt Q9QYJ6); assay: [3H]TAK-063 saturation binding on rat brain sections (autoradiography); Kd […] NAc shell, […] CPu
T1 construct: native PDE10A in rat brain sections
T1 sequence (Q9QYJ6 1-794): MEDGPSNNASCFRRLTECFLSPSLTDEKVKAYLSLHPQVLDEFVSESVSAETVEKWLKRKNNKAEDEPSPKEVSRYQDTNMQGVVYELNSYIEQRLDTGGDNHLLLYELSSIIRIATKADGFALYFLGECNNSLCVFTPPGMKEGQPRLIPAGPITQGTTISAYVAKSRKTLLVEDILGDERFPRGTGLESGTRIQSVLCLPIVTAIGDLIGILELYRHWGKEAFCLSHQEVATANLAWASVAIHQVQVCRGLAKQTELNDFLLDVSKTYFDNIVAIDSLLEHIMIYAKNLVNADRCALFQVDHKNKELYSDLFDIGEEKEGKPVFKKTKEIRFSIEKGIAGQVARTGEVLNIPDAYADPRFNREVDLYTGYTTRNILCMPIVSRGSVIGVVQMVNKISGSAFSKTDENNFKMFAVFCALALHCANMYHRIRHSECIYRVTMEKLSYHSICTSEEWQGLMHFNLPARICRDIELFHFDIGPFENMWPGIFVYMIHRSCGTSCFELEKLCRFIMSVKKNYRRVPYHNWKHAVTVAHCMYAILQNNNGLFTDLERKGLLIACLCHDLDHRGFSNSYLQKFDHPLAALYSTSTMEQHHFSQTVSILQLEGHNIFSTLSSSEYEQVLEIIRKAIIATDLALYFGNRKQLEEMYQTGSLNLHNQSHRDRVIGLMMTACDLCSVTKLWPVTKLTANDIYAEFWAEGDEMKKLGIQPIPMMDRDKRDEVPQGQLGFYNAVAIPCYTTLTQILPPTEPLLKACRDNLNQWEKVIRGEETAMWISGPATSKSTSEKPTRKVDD

[2] = target: T2, Phosphodiesterase PDE10A1 (Homo sapiens, UniProt Q9Y233); assay: enzyme inhibition panel at […] (Ricerca Biosciences), […] inhibition; type: biochemical
T2 construct: gene PDE10A; PDE10A1
T2 sequence (Q9Y233 1-779 isoform Q9Y233-1): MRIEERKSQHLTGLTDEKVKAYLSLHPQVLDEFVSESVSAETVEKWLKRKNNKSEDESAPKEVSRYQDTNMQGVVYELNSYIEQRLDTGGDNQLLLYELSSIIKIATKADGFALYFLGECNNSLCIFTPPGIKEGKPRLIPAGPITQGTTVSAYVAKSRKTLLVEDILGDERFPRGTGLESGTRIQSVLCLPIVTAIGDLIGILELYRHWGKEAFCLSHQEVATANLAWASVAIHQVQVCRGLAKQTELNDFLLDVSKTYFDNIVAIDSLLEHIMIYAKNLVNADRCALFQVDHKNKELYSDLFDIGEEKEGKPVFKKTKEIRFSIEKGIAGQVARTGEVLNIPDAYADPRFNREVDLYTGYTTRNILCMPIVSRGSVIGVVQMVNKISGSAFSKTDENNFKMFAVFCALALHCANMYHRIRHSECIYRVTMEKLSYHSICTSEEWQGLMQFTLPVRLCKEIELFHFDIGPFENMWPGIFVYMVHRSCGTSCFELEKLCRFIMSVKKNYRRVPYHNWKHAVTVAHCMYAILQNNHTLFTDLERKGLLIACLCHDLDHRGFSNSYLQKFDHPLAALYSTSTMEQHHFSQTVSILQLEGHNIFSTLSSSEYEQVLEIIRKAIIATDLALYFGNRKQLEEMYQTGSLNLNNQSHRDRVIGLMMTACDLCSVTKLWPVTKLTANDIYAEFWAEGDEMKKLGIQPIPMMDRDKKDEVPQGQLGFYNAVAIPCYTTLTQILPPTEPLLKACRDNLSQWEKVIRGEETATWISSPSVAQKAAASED

In the case of `COc1cn(-c2ccc(-n3cccn3)cc2F)nc(-c2ccnn2-c2ccccc2)c1=O` [TAK-063, 1-[2-fluoro-4-(1H-pyrazol-1-yl)phenyl]-5-methoxy-3-(1-phenyl-1H-pyrazol-5-yl)-pyridazin-4(1H)-one], the Kd [1] is reported as 2.6 nM and the inhibition at 10 µM [2] is reported as 101%.
